Key:
[1] = tested on: T. cruzi amastigotes; assay: Activity against intracellular T. cruzi amastigotes; assay type: cell-based, Trypanosoma cruzi; conditions: intracellular amastigotes grown in rat L6 cells; means of two independent assays; read-out: IC50 T. cruzi amastigotes
Source text: The bioactivity of isolated compounds against intracellular T. cruzi amastigotes grown in rat L6 […] is presented in Table 1. […] Rotenone and deguelin are known to be strong mitochondrial complex I (also known as NADH:ubiquinone oxidoreductase) inhibitors,[43–45] while different activities between closely related rotenoids (rotenone, 5′-α-epirotenone, and 5′-β-epirotenone) has already been shown. […] The variation in activity observed on our rapidly generated series of structural analogs points in the same direction. As shown in Fig. 3 and Table 1, the cyclic and bent form of the rotenoid at the B/C ring junction is essential for activity, since compounds 40 and 41 were not active.
The pure compounds activity was assessed against T. cruzi amastigotes as described in ref. [27].

[2] = tested on: L6 cells (rat skeletal myoblast); assay: Cytotoxicity assay: L-6 cells; assay type: cell-based; conditions: means of two independent assays
Experimental: The pure compounds cytotoxicity was assessed against L6 cells as described in ref. [27].

medicarpin [Compound 15] gave an IC50 [1] of 202 µM and an IC50 [2] of 226 µM.

— paper PMC12062876, “Efficient constitution of a library of rotenoid analogs active against Trypanosoma cruzi from a digitalized plant extract collection” (RSC Advances, 2025)
